Assay results reported in patent US20230077362A1 (CORTEVA AGRISCIENCE LLC, priority 2019, published 2023).

Assays:
[1] = test system: Beet Armyworm (Spodoptera exigua) ("BAW"), second instar larvae; assay: Bioassay on beet armyworm (BAW), 128-well diet tray assay; assay type: in vivo; conditions: for pest or weed control at 50 µg/cm2: Spodoptera exigua, read-out: BAW rating; for BAW rating: Table ABC, species BAW, C = not tested, D = no activity noticed
Procedure, shortened: (§1)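 After sealing with a clear self-adhesive lid, the trays are incubated at 25° C. with 14 h light and 10 h dark for 5 to 7 days; mortality in each well is recorded as a percentage and averaged across the eight wells.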

[2] = test system: Cabbage Looper (Trichoplusia ni) ("CL"), second instar larvae; assay: Bioassay on cabbage looper (CL), 128-well diet tray assay; assay type: in vivo; conditions: for pest or weed control at 50 µg/cm2: Trichoplusia ni, read-out: CL rating; for CL rating: Table ABC, species CL, C = not tested, D = no activity noticed
Procedure, shortened: as §1

Cc1ccc(OCCC(F)(F)F)c(N2C(=O)CS/C2=N\C(=O)Nc2ccc(-c3cn(-c4ccc(OC(F)(F)F)cc4)cn3)cc2F)c1 [Compound J476, (Z)-1-(2-Fluoro-4-(1-(4-(trifluoromethoxy)phenyl)-1H-imidazol-4-yl)phenyl)-3-(3-(5-methyl-2-(3,3,3-trifluoropropoxy)phenyl)-4-oxothiazolidin-2-ylidene)urea]
pest or weed control at 50 µg/cm2 [1]: 50 to 100%
pest or weed control at 50 µg/cm2 [2]: 50 to 100%

Cc1ccc(C(C)C)c(N2C(=O)CS/C2=N\C(=O)Nc2ccc(-c3cn(-c4ccc(OC(F)(F)F)cc4)cn3)cc2C)c1 [Compound J477, (Z)-1-(3-(2-Isopropyl-5-methylphenyl)-4-oxothiazolidin-2-ylidene)-3-(2-methyl-4-(1-(4-(trifluoromethoxy)phenyl)-1H-imidazol-4-yl)phenyl)urea]
pest or weed control at 50 µg/cm2 [1]: 50 to 100%
pest or weed control at 50 µg/cm2 [2]: 50 to 100%

CC(C)c1ccc(N(C)C)cc1N1C(=O)CS/C1=N\C(=O)Nc1ccc(-c2cn(-c3ccc(C(F)(F)F)cn3)cn2)cc1F [Compound J481, (Z)-1-(3-(5-(Dimethylamino)-2-isopropylphenyl)-4-oxothiazolidin-2-ylidene)-3-(2-fluoro-4-(1-(5-(trifluoromethyl)pyridin-2-yl)-1H-imidazol-4-yl)phenyl)urea]
pest or weed control at 50 µg/cm2 [1]: 50 to 100%
pest or weed control at 50 µg/cm2 [2]: 50 to 100%

Cc1ccc(C(C)C)c(N2C(=O)CS/C2=N\C(=O)Nc2ccc(-c3cn(-c4ccc(C(F)(F)F)cn4)cn3)cc2F)c1 [Compound J482, (Z)-1-(2-Fluoro-4-(1-(5-(trifluoromethyl)pyridin-2-yl)-1H-imidazol-4-yl)phenyl)-3-(3-(2-isopropyl-5-methylphenyl)-4-oxothiazolidin-2-ylidene)urea]
pest or weed control at 50 µg/cm2 [1]: 50 to 100%
pest or weed control at 50 µg/cm2 [2]: 50 to 100%

CN(C)c1ccc(C(F)(F)F)c(N2C(=O)CS/C2=N\C(=O)Nc2ccc(-c3cn(-c4ccc(C(F)(F)F)cn4)cn3)cc2F)c1 [Compound J483, (Z)-1-(3-(5-(Dimethylamino)-2-(trifluoromethyl)phenyl)-4-oxothiazolidin-2-ylidene)-3-(2-fluoro-4-(1-(5-(trifluoromethyl)pyridin-2-yl)-1H-imidazol-4-yl)phenyl)urea]
pest or weed control at 50 µg/cm2 [1]: 50 to 100%
pest or weed control at 50 µg/cm2 [2]: 50 to 100%

Cc1ccc(OCCC(F)(F)F)c(N2C(=O)CS/C2=N\C(=O)Nc2ccc(-c3cn(-c4ccc(C(F)(F)F)cn4)cn3)cc2F)c1 [Compound J484, (Z)-1-(2-Fluoro-4-(1-(5-(trifluoromethyl)pyridin-2-yl)-1H-imidazol-4-yl)phenyl)-3-(3-(5-methyl-2-(3,3,3-trifluoropropoxy)phenyl)-4-oxothiazolidin-2-ylidene)urea]
pest or weed control at 50 µg/cm2 [1]: 50 to 100%
pest or weed control at 50 µg/cm2 [2]: 50 to 100%

COC(c1ccc(C)cc1N1C(=O)CS/C1=N\C(=O)Nc1ccc(-c2cn(-c3ccc(C(F)(F)F)cn3)cn2)cc1F)C(F)(F)F (centres unmarked) [Compound J485, (Z)-1-(2-Fluoro-4-(1-(5-(trifluoromethyl)pyridin-2-yl)-1H-imidazol-4-yl)phenyl)-3-(3-(5-methyl-2-(2,2,2-trifluoro-1-methoxyethyl)phenyl)-4-oxothiazolidin-2-ylidene)urea]
pest or weed control at 50 µg/cm2 [1]: 50 to 100%
pest or weed control at 50 µg/cm2 [2]: 50 to 100%

CCOC(C)c1ccc(C)cc1N1C(=O)CS/C1=N\C(=O)Nc1ccc(-c2cn(-c3ccc(OC(F)(F)F)cc3)cn2)cc1C (centres unmarked) [Compound J486, (Z)-1-(3-(2-(1-Ethoxyethyl)-5-methylphenyl)-4-oxothiazolidin-2-ylidene)-3-(2-methyl-4-(1-(4-(trifluoromethoxy)phenyl)-1H-imidazol-4-yl)phenyl)urea]
pest or weed control at 50 µg/cm2 [1]: 50 to 100%
pest or weed control at 50 µg/cm2 [2]: 50 to 100%

Cc1ccc(COCC(F)(F)F)c(N2C(=O)CS/C2=N\C(=O)Nc2ccc(-c3cn(-c4ccc(C(F)(F)F)cn4)cn3)cc2F)c1 [Compound J487, (Z)-1-(2-Fluoro-4-(1-(5-(trifluoromethyl)pyridin-2-yl)-1H-imidazol-4-yl)phenyl)-3-(3-(5-methyl-2-((2,2,2-trifluoroethoxy)methyl)phenyl)-4-oxothiazolidin-2-ylidene)urea]
pest or weed control at 50 µg/cm2 [1]: 50 to 100%
pest or weed control at 50 µg/cm2 [2]: 50 to 100%

Cc1ccc(-c2ccco2)c(N2C(=O)CS/C2=N\C(=O)Nc2ccc(-c3ncn(-c4ccc(OC(F)(F)F)cc4)n3)cc2C)c1 [Compound J488, (Z)-1-(3-(2-(Furan-2-yl)-5-methylphenyl)-4-oxothiazolidin-2-ylidene)-3-(2-methyl-4-(1-(4-(trifluoromethoxy)phenyl)-1H-1,2,4-triazol-3-yl)phenyl)urea]
pest or weed control at 50 µg/cm2 [1]: 50 to 100%
pest or weed control at 50 µg/cm2 [2]: 50 to 100%

Cc1ccc(-c2ccco2)c(N2C(=O)CS/C2=N\C(=O)Nc2ccc(-c3ncn(-c4ccc(OC(F)(F)F)cc4)n3)cc2F)c1 [Compound J489, (Z)-1-(2-Fluoro-4-(1-(4-(trifluoromethoxy)phenyl)-1H-1,2,4-triazol-3-yl)phenyl)-3-(3-(2-(furan-2-yl)-5-methylphenyl)-4-oxothiazolidin-2-ylidene)urea]
pest or weed control at 50 µg/cm2 [1]: 50 to 100%
pest or weed control at 50 µg/cm2 [2]: 50 to 100%

CCOCc1ccc(C)cc1N1C(=O)CS/C1=N\C(=O)Nc1ccc(-c2cn(-c3ccc(OC(F)(F)F)cc3)nn2)cc1 [Compound J493, (Z)-1-(3-(2-(Ethoxymethyl)-5-methylphenyl)-4-oxothiazolidin-2-ylidene)-3-(4-(1-(4-(trifluoromethoxy)phenyl)-1H-1,2,3-triazol-4-yl)phenyl)urea]
pest or weed control at 50 µg/cm2 [1]: 50 to 100%
pest or weed control at 50 µg/cm2 [2]: 50 to 100%

COC(c1ccc(C)cc1N1C(=O)CS/C1=N\C(=O)Nc1ccc(-c2cn(-c3ccc(OC(F)(F)F)cc3)nn2)cc1)C(F)(F)F (centres unmarked) [Compound J494, (Z)-1-(3-(5-Methyl-2-(2,2,2-trifluoro-1-methoxyethyl)phenyl)-4-oxothiazolidin-2-ylidene)-3-(4-(1-(4-(trifluoromethoxy)phenyl)-1H-1,2,3-triazol-4-yl)phenyl)urea]
pest or weed control at 50 µg/cm2 [1]: 50 to 100%
pest or weed control at 50 µg/cm2 [2]: 50 to 100%

COCc1ccc(N(C)C)cc1N1C(=O)CS/C1=N\C(=O)Nc1ccc(-c2cn(-c3ccc(OC(F)(F)F)cc3)nn2)cc1 [Compound J496, (Z)-1-(3-(5-(Dimethylamino)-2-(methoxymethyl)phenyl)-4-oxothiazolidin-2-ylidene)-3-(4-(1-(4-(trifluoromethoxy)phenyl)-1H-1,2,3-triazol-4-yl)phenyl)urea]
pest or weed control at 50 µg/cm2 [1]: 50 to 100%
pest or weed control at 50 µg/cm2 [2]: 50 to 100%

Cc1cc(COCC(F)(F)F)c(N2C(=O)CS/C2=N\C(=O)Nc2ccc(-c3ncn(-c4ccc(S(F)(F)(F)(F)F)cc4)n3)cc2F)cc1C [Compound J497]
BAW rating [1]: A (50-100)
CL rating [2]: A (50-100)

CCCc1ccc(C)cc1N1C(=O)CS/C1=N\C(=O)Nc1ccc(-c2ncn(-c3ccc(S(F)(F)(F)(F)F)cc3)n2)cc1F [Compound J498]
BAW rating [1]: A (50-100)
CL rating [2]: A (50-100)

Cc1ccc(C(C)C)c(N2C(=O)CS/C2=N\C(=O)Nc2ccc(-c3nnc(-c4ccc(OC(F)(F)F)cc4)s3)cc2F)c1 [Compound J499, (Z)-1-(2-Fluoro-4-(5-(4-(trifluoromethoxy)phenyl)-1,3,4-thiadiazol-2-yl)phenyl)-3-(3-(2-isopropyl-5-methylphenyl)-4-oxothiazolidin-2-ylidene)urea]
pest or weed control at 50 µg/cm2 [1]: 50 to 100%
pest or weed control at 50 µg/cm2 [2]: 50 to 100%

Cc1ccc(COCC(F)(F)F)c(N2C(=O)CS/C2=N\C(=O)Nc2ccc(-c3nnc(-c4ccc(OC(F)(F)F)cc4)s3)cc2F)c1 [Compound J500, (Z)-1-(2-Fluoro-4-(5-(4-(trifluoromethoxy)phenyl)-1,3,4-thiadiazol-2-yl)phenyl)-3-(3-(5-methyl-2-((2,2,2-trifluoroethoxy)methyl)phenyl)-4-oxothiazolidin-2-ylidene)urea]
pest or weed control at 50 µg/cm2 [1]: 50 to 100%
pest or weed control at 50 µg/cm2 [2]: 50 to 100%

COC(C)c1ccc(C)cc1N1C(=O)CS/C1=N\C(=O)Nc1ccc(-c2nnc(-c3ccc(OC(F)(F)F)cc3)s2)cc1F (centres unmarked) [Compound J504, (Z)-1-(2-Fluoro-4-(5-(4-(trifluoromethoxy)phenyl)-1,3,4-thiadiazol-2-yl)phenyl)-3-(3-(2-(1-methoxyethyl)-5-methylphenyl)-4-oxothiazolidin-2-ylidene)urea]
pest or weed control at 50 µg/cm2 [1]: 0 to 50%
pest or weed control at 50 µg/cm2 [2]: 50 to 100%

CC(C)c1ccc(N(C)C)cc1N1C(=O)CS/C1=N\C(=O)Nc1ccc(-c2nnc(-c3ccc(OC(F)(F)F)cc3)s2)cc1F [Compound J506, (Z)-1-(3-(5-(Dimethylamino)-2-isopropylphenyl)-4-oxothiazolidin-2-ylidene)-3-(2-fluoro-4-(5-(4-(trifluoromethoxy)phenyl)-1,3,4-thiadiazol-2-yl)phenyl)urea]
pest or weed control at 50 µg/cm2 [1]: 50 to 100%
pest or weed control at 50 µg/cm2 [2]: 50 to 100%

CC(C)c1cc(F)c(N(C)C)cc1N1C(=O)CS/C1=N\C(=O)Nc1ccc(-c2nnc(-c3ccc(OC(F)(F)F)cc3)s2)cc1F [Compound J507, (Z)-1-(3-(5-(Dimethylamino)-4-fluoro-2-isopropylphenyl)-4-oxothiazolidin-2-ylidene)-3-(2-fluoro-4-(5-(4-(trifluoromethoxy)phenyl)-1,3,4-thiadiazol-2-yl)phenyl)urea]
pest or weed control at 50 µg/cm2 [1]: 50 to 100%
pest or weed control at 50 µg/cm2 [2]: 50 to 100%

COC(C)c1ccc(C)cc1N1C(=O)CS/C1=N\C(=O)Nc1ccc(-c2cn(-c3ccc(C(F)(F)F)cn3)cn2)cc1C (centres unmarked) [Compound J508, (Z)-1-(3-(2-(1-Methoxyethyl)-5-methylphenyl)-4-oxothiazolidin-2-ylidene)-3-(2-methyl-4-(1-(5-(trifluoromethyl)pyridin-2-yl)-1H-imidazol-4-yl)phenyl)urea]
pest or weed control at 50 µg/cm2 [1]: 50 to 100%
pest or weed control at 50 µg/cm2 [2]: 50 to 100%
